Tests used:
[1] = target: T1, GST tagged LXRbeta LBD (ligand binding domain) (Homo sapiens, UniProt P55055); test: LanthaScreen TR-FRET Liver X Receptor Coactivator Assay, LXR beta-LBD (co-activator recruitment; IP and % Emax relative to T0901317); type: biochemical; conditions: for EC50: Inflection Point of co-activator recruitment, LXR beta-LBD, TR-FRET; for Emax: efficacy at max dose in relation to reference T0901317, LXR beta-LBD, read-out: LXR beta actiivty at max dose (%)
T1 construct: purchased Invitrogen pv4658.pps
T1 sequence (P55055 222-460 limits assumed): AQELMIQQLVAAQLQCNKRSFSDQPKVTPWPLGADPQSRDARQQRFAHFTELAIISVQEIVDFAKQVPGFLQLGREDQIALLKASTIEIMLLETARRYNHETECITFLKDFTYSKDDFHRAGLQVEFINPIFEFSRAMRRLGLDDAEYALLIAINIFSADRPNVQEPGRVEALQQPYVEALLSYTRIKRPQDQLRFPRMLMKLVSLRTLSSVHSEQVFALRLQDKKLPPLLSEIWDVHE
Summary of the method: (§1)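 Potency as inflection point and efficacy as Emax come from compound-driven coactivator peptide recruitment, scaled to T0901317, using a terbium/fluorescein TR-FRET format after room-temperature incubation.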

[2] = target: T2, GST tagged LXRalpha LBD (ligand binding domain) (Homo sapiens, UniProt Q13133); test: LanthaScreen TR-FRET Liver X Receptor Coactivator Assay, LXR alpha-LBD (co-activator recruitment; IP and % Emax relative to T0901317); type: biochemical; conditions: for LXR alpha IP (nM) / EC50: Inflection Point of co-activator recruitment, LXR alpha-LBD, TR-FRET; for Emax: efficacy at max dose in relation to reference T0901317, LXR alpha-LBD, read-out: LXR alpha actiivty at max dose (%)
T2 construct: purchased Invitrogen pv4655
T2 sequence (Q13133 209-447 limits assumed): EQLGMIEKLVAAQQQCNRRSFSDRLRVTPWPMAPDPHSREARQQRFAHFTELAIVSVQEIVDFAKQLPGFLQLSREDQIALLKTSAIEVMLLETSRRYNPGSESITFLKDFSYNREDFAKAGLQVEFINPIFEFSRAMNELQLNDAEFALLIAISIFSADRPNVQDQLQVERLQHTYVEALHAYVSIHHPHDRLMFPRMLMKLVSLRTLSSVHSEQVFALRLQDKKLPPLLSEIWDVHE
Summary of the method: as §1

SMILES | EC50 [1] | Emax [1] | LXR alpha IP (nM) [2] | Emax [2] | EC50 [2]
CN(C)C(=O)c1ccc(N2CCC(C)(CCCN(C)C(=O)[C@@]3(c4ccccc4)CCCO3)CC2)nc1Cl [Example 9-4, (S)-2-chloro-N,N-dimethyl-6-(4-methyl-4-(3-(N-methyl-2-phenyltetrahydrofuran-2-carboxamido)propyl)piperidin-1-yl)nicotinamide] | 0.063 µM | 67% | No IP | 14% | 
CN(C)C(=O)c1ccc(N2CCC(C)(CCCN(C)C(=O)[C@](O)(c3cccc(OC(F)(F)F)c3)C(F)(F)F)CC2)nc1Cl [Example 9-5, (R)-2-chloro-N,N-dimethyl-6-(4-methyl-4-(3-(3,3,3-trifluoro-2-hydroxy-N-methyl-2-(3-(trifluoromethoxy)phenyl)pro-panamido)propyl)piperidin-1-yl)nicotinamide] | 0.043 µM | 38% | No IP | 0% | 
COc1cccc([C@@](O)(C(=O)N(C)CCCC2(C)CCN(c3ccc(C(=O)N(C)C)c(Cl)c3)CC2)C(F)(F)F)c1 [Example 9-6, (R)-2-chloro-N,N-dimethyl-4-(4-methyl-4-(3-(3,3,3-trifluoro-2-hydroxy-2-(3-methoxyphenyl)-N-methylpropanamido)propyl)piper-idin-1-yl)benzamide] | 0.136 µM | 20% | No IP | 0% | 
CN(C)C(=O)c1ccc(N2CCC(C)(CCCN(C)C(=O)[C@](O)(c3ccccc3)C(F)(F)F)CC2)cc1Cl [Example 9-7, (R)-2-chloro-N,N-dimethyl-4-(4-methyl-4-(3-(3,3,3-trifluoro-2-hydroxy-N-methyl-2-phenylpropanamido)propyl)piper-idin-1-yl)benzamide] | 0.078 µM | 42% |  | 19% | 0.921 µM
COc1cccc([C@@](O)(C(=O)Nc2ccc(C3CCN(c4ccc(C(=O)N(C)C)c(Cl)n4)CC3)cc2)C(F)(F)F)c1 [Example 10-1, (R)-2-chloro-N,N-dimethyl-6-(4-(4-(3,3,3-trifluoro-2-hydroxy-2-(3-methoxyphenyl)propanamido)phenyl)piperidin-1-yl)nicotinamide] | 1.35 µM | 65% | No IP | 0% | 
CNC(=O)c1ccc(N2CCC(c3ccc(NC(=O)[C@](O)(c4cccc(OC)c4)C(F)(F)F)cc3)CC2)cc1Cl [Example 10-2, (R)-2-chloro-N-methyl-4-(4-(4-(3,3,3-trifluoro-2-hydroxy-2-(3-methoxyphenyl)propanamido)phenyl)piperidin-1-yl)benzamide] | 3.73 µM | 40% | No IP | 0% | 
COc1cccc([C@@](O)(C(=O)Nc2ccc(C3CCN(c4ccc(C(=O)N(C)C)c(Cl)c4)CC3)cc2)C(F)(F)F)c1 [Example 10-3, (R)-2-chloro-N,N-dimethyl-4-(4-(4-(3,3,3-trifluoro-2-hydroxy-2-(3-methoxyphenyl)propanamido)phenyl)piperidin-1-yl)benzamide] | 1.33 µM | 67% | No IP | 18% | 
COc1cccc([C@@](O)(C(=O)Nc2cccc(C3CCN(c4ccc(C(=O)N(C)C)c(Cl)n4)CC3)c2)C(F)(F)F)c1 [Example 10-4, (R)-2-chloro-N,N-dimethyl-6-(4-(3-(3,3,3-trifluoro-2-hydroxy-2-(3-methoxyphenyl)propanamido)phenyl)piperidin-1-yl)nicotinamide] | 0.649 µM | 49% | No IP | 0% | 

Next, values leading:

EC50 [1] | Emax [1] | LXR alpha IP (nM) [2] | Emax [2] | EC50 [2] | SMILES
0.273 µM | 118% |  | 28% | 2.39 µM | CN(C)C(=O)c1ccc(N2CCC(CC3CC(NC(=O)[C@](O)(c4ccccc4)C(F)(F)F)C3)CC2)nc1Cl (stereo partly drawn) [Example 11-2, (R)-2-chloro-N,N-dimethyl-6-(4-((3-(3,3,3-trifluoro-2-hydroxy-2-phenylpropanamido)cyclobutyl)methyl)piperidin-1-yl)nicotinamide]
0.508 µM | 93% |  | 22% | 6.01 µM | CNC(=O)c1ccc(N2CCC(CC3CC(NC(=O)[C@](O)(c4ccccc4)C(F)(F)F)C3)CC2)cc1Cl (stereo partly drawn) [Example 11-3, (R)-2-chloro-N-methyl-4-(4-((3-(3,3,3-trifluoro-2-hydroxy-2-phenylpropanamido)cyclobutyl)methyl)piperidin-1-yl)benzamide]
0.27 µM | 85% | No IP | 14% |  | CN(C)C(=O)c1ccc(N2CCC(CC3CC(NC(=O)[C@](O)(c4ccccc4)C(F)(F)F)C3)CC2)cc1Cl (stereo partly drawn) [Example 11-4, (R)-2-chloro-N,N-dimethyl-4-(4-((3-(3,3,3-trifluoro-2-hydroxy-2-phenylpropanamido)cyclobutyl)methyl)piperidin-1-yl)benzamide]
0.653 µM | 53% | No IP | 7% |  | CNC(=O)c1ccc(N2CCC(CC3CC(NC(=O)[C@](O)(c4cccc(OC)c4)C(F)(F)F)C3)CC2)cc1Cl (stereo partly drawn) [Example 11-5, (R)-2-chloro-N-methyl-4-(4-((3-(3,3,3-trifluoro-2-hydroxy-2-(3-methoxyphenyl)propanamido)cyclobutyl)methyl)piperidin-1-yl)benzamide]
0.561 µM | 54% | No IP | 3% |  | COc1cccc([C@@](O)(C(=O)NC2CC(CC3CCN(c4ccc(C(=O)N(C)C)c(Cl)c4)CC3)C2)C(F)(F)F)c1 (stereo partly drawn) [Example 11-6, (R)-2-chloro-N,N-dimethyl-4-(4-((3-(3,3,3-trifluoro-2-hydroxy-2-(3-methoxyphenyl)propanamido)cyclobutyl)methyl)piperidin-1-yl)benzamide]
0.266 µM | 44% | No IP | 12% |  | CN(C)C(=O)c1ccc(N2CCC(F)(CCCN(C)C(=O)[C@](O)(c3ccccc3)C(F)(F)F)CC2)cc1Cl [Example 12-1, (R)-2-chloro-4-(4-fluoro-4-(3-(3,3,3-trifluoro-2-hydroxy-N-methyl-2-phenylpropanamido)propyl)piperidin-1-yl)-N,N-dimethylbenzamide]
0.218 µM | 25% | No IP | 4% |  | COc1cccc([C@@](O)(C(=O)N(C)CCCC2(F)CCN(c3ccc(C(=O)N(C)C)c(Cl)c3)CC2)C(F)(F)F)c1 [Example 12-2, (R)-2-chloro-4-(4-fluoro-4-(3-(3,3,3-trifluoro-2-hydroxy-2-(3-methoxyphenyl)-N-methylpropanamido)propyl)piperidin-1-yl)-N,N-dimethylbenzamide]
0.151 µM | 58% | No IP | 12% |  | COc1cccc([C@@](O)(C(=O)N(C)CCCC2(F)CCN(c3ccc(C(=O)N(C)C)c(Cl)n3)CC2)C(F)(F)F)c1 [Example 12-3, (R)-2-chloro-6-(4-fluoro-4-(3-(3,3,3-trifluoro-2-hydroxy-2-(3-methoxyphenyl)-N-methylpropanamido)propyl)piperidin-1-yl)-N,N-dimethylnicotinamide]
0.266 µM | 46% | No IP | 0% |  | CN(C)C(=O)c1ccc(N2CCC(F)(CCCN(C)C(=O)[C@](O)(c3ccccc3)C(F)(F)F)CC2)nc1Cl [Example 12-4, (R)-2-chloro-6-(4-fluoro-4-(3-(3,3,3-trifluoro-2-hydroxy-N-methyl-2-phenylpropanamido)propyl)piperidin-1-yl)-N,N-dimethylnicotinamide]
0.034 µM | 50% |  | 26% | 0.472 µM | COc1cccc([C@@](O)(C(=O)N(C)CCC2CC3(CCN(c4ccc(C(=O)N(C)C)c(Cl)n4)CC3)C2)C(F)(F)F)c1 [Example 13-1]
0.142 µM | 49% | No IP | 1% |  | CNC(=O)c1ccc(N2CCC3(CC2)CC(CCN(C)C(=O)[C@](O)(c2cccc(OC)c2)C(F)(F)F)C3)nc1Cl [Example 13-2, 2-chloro-N-methyl-6-(2-(2-((R)-3,3,3-trifluoro-2-hydroxy-2-(3-methoxyphenyl)-N-methylpropanamido)ethyl)-7-azaspiro[3.5]nonan-7-yl)nicotinamide]
0.654 µM | 35% | No IP | 1% |  | COc1cccc([C@@](O)(C(=O)N(C)CCC2CC3(CCN(c4ccc(C(=O)NC5CC5)c(Cl)n4)CC3)C2)C(F)(F)F)c1 [Example 13-3, 2-chloro-N-cyclopropyl-6-(2-(2-((R)-3,3,3-trifluoro-2-hydroxy-2-(3-methoxyphenyl)-N-methylpropanamido)ethyl)-7-azaspiro[3.5]nonan-7-yl)nicotinamide]
